# In Sander's compilation of Henry's law constants (doi:10.1002/etc.5620201008):
# Where “and” joins values, the source holds several entries; their conditions need not be identical. Identical values can stand only once.
# Key:
# Conditions in all cases: reference: Kochetkov et al. (2001)
# [1] = Henry solubility constant Hcp at 299 K (mol/(m3 Pa))
# [2] = Henry solubility constant Hcp at 300 K (mol/(m3 Pa))
# [3] = Henry solubility constant Hcp at 301 K (mol/(m3 Pa))
SMILES,Henry solubility constant Hcp at 299 K [1],Henry solubility constant Hcp at 300 K [2],other results
C[Si]1(C)O[Si](C)(C)O[Si](C)(C)O[Si](C)(C)O[Si](C)(C)O1 [decamethylcyclopentasiloxane],3.4e-05 and 3.1e-05,–,–
C[Si](C)(C)O[Si](C)(C)O[Si](C)(C)O[Si](C)(C)C [decamethyltetrasiloxane],–,5.8e-07,–
C[Si](C)(C)O[Si](C)(C)C [hexamethyldisiloxane],–,0.00017 and 0.00031,–
c1ccccc1 [benzene],–,–,Henry solubility constant Hcp at 301 K [3]: 0.0021 and 0.0017
C[Si]1(C)O[Si](C)(C)O[Si](C)(C)O[Si](C)(C)O[Si](C)(C)O[Si](C)(C)O1 [dodecamethylcyclohexasiloxane],6.8e-05 and 0.00015,–,–
C[Si](C)(C)O[Si](C)(C)O[Si](C)(C)C [octamethyltrisiloxane],–,3.3e-06 and 2.7e-06,–
